Measured values: ChEMBL document CHEMBL4680359, “1-Pyrazolyl-5,6-Disubstituted Indazole Derivatives as LRRK2 Inhibitors for Treating Parkinson's Disease” (ACS Med Chem Lett, 2021)

What follows are compounds tested against Leucine-rich repeat serine/threonine-protein kinase 2 (Homo sapiens, UniProt Q5S007, G2019S) (assay: Inhibition of GST-tagged truncated human LRRK2 G2019S mutant using fluorescein labeled LRRKtide peptide as substrate preincubated for 15 mins followed by substrate addition measured after 90 mins in presence of ATP at Km concentration by TR-FRET Lanthascreen assay).
Sequence of Leucine-rich repeat serine/threonine-protein kinase 2 (Q5S007 whole entry G2019S, the tested form may be a part): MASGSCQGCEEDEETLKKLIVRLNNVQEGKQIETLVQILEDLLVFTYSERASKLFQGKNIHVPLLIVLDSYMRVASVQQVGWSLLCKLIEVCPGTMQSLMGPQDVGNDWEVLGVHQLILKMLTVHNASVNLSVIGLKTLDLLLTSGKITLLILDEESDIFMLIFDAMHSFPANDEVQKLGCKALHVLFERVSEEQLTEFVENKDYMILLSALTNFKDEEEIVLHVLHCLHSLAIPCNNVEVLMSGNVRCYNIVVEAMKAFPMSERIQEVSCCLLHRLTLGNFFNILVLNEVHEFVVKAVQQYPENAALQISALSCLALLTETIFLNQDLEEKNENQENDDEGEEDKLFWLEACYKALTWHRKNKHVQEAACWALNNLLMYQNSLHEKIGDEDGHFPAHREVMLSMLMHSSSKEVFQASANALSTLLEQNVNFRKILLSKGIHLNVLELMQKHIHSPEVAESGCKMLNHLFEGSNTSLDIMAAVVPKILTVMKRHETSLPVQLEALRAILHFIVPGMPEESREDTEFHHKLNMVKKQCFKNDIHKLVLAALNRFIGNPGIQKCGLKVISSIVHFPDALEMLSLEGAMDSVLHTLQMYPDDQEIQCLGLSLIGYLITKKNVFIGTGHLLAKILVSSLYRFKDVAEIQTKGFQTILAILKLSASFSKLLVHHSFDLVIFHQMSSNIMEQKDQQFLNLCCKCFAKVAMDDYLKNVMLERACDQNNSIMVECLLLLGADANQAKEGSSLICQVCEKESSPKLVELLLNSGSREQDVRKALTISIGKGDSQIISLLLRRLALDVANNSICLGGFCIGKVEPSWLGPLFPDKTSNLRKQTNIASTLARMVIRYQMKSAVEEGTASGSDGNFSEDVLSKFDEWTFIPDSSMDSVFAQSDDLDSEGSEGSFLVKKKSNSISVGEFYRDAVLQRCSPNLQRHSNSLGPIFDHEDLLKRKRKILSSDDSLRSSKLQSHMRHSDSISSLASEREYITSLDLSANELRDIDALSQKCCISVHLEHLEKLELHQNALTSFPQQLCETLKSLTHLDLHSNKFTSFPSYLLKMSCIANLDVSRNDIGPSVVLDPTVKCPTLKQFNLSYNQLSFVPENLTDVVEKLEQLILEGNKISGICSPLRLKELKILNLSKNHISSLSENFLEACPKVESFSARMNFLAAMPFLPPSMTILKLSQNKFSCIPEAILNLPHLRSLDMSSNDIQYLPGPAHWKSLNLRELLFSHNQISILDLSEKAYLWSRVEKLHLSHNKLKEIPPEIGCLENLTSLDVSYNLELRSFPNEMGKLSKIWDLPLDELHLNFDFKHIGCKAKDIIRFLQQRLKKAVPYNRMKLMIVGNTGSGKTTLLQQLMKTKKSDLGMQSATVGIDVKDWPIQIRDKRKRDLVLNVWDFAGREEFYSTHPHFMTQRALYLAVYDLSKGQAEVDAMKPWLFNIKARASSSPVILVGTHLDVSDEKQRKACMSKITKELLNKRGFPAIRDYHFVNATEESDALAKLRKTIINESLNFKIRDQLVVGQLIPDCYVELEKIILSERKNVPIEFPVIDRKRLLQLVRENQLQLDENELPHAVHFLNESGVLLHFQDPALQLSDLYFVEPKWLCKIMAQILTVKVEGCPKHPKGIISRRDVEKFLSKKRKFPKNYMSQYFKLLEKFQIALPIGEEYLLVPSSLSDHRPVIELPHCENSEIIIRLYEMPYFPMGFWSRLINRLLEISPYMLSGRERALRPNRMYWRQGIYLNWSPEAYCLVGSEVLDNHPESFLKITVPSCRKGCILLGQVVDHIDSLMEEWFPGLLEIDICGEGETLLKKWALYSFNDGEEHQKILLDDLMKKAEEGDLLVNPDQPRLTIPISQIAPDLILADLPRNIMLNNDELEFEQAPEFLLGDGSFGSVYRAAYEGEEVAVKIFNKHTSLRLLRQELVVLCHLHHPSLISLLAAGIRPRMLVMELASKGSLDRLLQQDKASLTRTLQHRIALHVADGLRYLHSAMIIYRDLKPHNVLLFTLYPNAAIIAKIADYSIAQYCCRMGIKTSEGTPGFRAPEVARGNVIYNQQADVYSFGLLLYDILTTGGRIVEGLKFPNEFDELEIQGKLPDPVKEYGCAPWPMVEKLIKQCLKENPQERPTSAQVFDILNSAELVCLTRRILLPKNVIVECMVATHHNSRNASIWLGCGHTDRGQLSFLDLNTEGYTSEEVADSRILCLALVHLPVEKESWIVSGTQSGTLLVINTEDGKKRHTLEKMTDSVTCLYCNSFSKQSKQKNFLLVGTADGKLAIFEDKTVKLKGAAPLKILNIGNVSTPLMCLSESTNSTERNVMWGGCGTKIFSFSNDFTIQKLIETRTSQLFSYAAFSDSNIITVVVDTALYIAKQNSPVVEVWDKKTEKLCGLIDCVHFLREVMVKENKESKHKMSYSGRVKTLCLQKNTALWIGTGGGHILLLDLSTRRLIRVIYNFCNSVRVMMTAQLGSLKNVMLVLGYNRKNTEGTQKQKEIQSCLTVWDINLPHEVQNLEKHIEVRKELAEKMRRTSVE
For `OC1(c2cncs2)CCN(c2cc3c(cnn3-c3cnn(C4CC4)c3)cc2Cl)CC1`, the IC50 was 97.5 nM. In the case of `COCC12CC(n3cc(-n4ncc5cc(Cl)c(N6CCN([C@]7(C)COC[C@@H]7O)CC6)cc54)cn3)(C1)C2`, the IC50 is reported as under 80.4 nM. `Cc1cc2cnn(-c3cnn(C45CC(C4)C5)c3)c2cc1N1CCN([C@@H]2COC[C@@H]2O)CC1` gave an IC50 of 259 nM. For `[2H]C([2H])([2H])OCC12CC(n3cc(-n4ncc5cc(Cl)c(N6CCN([C@]7(C)COC[C@@H]7O)CC6)cc54)cn3)(C1)C2`, the IC50 was 157 nM. `CO[C@H]1COC[C@H]1N1CCN(c2cc3c(cnn3-c3cnn(C45CC(C4)C5)c3)cc2Cl)CC1` gave an IC50 of 104 nM. `C[C@@]1(N2CCN(c3cc4c(cnn4-c4cnn(C56CC(C5)C6)c4)cc3Cl)CC2)CC[C@H]1O` gave an IC50 of 154 nM.
